Test results as given in patent US20190231791A1, “Combination Therapy” (Eli Lilly and Company, priority 2016, published 2019).
Like-named read-outs stand apart in the source and are kept apart here.

Key:
human BACE2 (1-460):Fc = target: T1, human BACE2 (1-460):Fc (Homo sapiens, UniProt Q9Y5Z0); assay: BACE2 MBP-C125Swe assay; type: biochemical
T1 construct: 10 μL of 200 picomolar human BACE2 (1-460):Fc in the same reaction buffer; made in house; host or cells: HEK293 (transient transfection, purified from conditioned media by Protein A)
T1 sequence (Q9Y5Z0 21-460): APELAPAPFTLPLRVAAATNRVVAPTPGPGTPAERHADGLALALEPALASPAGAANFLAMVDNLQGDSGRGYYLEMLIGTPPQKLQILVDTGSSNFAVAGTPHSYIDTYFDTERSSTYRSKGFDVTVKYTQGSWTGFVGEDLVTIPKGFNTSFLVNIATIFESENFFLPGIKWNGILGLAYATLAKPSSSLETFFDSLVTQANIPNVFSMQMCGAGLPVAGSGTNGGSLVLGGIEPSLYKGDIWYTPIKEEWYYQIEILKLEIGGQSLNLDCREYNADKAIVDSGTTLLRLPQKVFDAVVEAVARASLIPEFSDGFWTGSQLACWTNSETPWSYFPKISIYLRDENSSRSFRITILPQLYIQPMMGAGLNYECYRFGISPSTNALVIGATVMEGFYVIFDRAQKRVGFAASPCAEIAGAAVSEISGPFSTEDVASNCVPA
Description: (§1) To assess selectivity of BACE1 over BACE2, the test compound is evaluated in FRET and immunoassay detection base enzymatic assays using specific substrates for BACE1 and BACE2 as described below. For in vitro enzymatic and cellular assays, the test compound is prepared in DMSO to make up a 10 mM stock solution. The stock solution is serially diluted in DMSO to obtain a ten-point dilution curve with final compound concentrations ranging from 10 μM to 0.05 nM in a 96-well round-bottom plate before conducting the in vitro enzymatic and whole cell assays.
Human BACE1 (accession number: AF190725) and human BACE2 (accession number: AF 204944) are cloned from total brain cDNA by RT-PCR. The nucleotide sequences corresponding to amino acid sequences #1 to 460 are inserted into the cDNA encoding human IgG1 (Fc) polypeptide (Vassar et al., Science, 286, 735-742 (1999)). This fusion protein of BACE1(1-460) or BACE2(1-460) and human Fc, named huBACE1:Fc and huBACE2:Fc respectively, are constructed in the pJB02 vector. […]
Conditioned media of HEK293 cells transiently transfected with huBACE1:Fc or huBACE2:Fc cDNA are collected. […] The purity of final product is assessed by electrophoresis in 4-20% Tris-Glycine SDS-PAGE. […]
10 point serial dilutions of test compounds are prepared in the appropriate range. […] The amount of product is measured by ELISA using MBP-C26swe standard. […]

beta-secretase = target: T2, beta-secretase (Mus musculus, UniProt P56818); assay: In vivo inhibition of beta-secretase, brain Abeta 1-x in PDAPP mice; settings: young female PDAPP mice, three hours after dosing, vs vehicle, p<0.01
T2 construct: from tissue; host or cells: brain (hippocampus, cortex) of young female PDAPP mice, in vivo dosing
Source text: Several animal models, including mouse, guinea pig, dog, and monkey, may be used to screen for inhibition of beta-secretase activity in vivo following compound treatment. Animals used in this invention can be wild type, transgenic, or gene knockout animals. For example, the PDAPP mouse model, prepared as described in Games et al., Nature 373, 523-527 (1995), and other non-transgenic or gene knockout animals are useful to analyze in vivo inhibition of Abeta and sAPPbeta production in the presence of inhibitory compounds. Generally, 2 month old PDAPP mice, gene knockout mice or non-transgenic animals are administered compound formulated in vehicles, such as corn oil, beta-cyclodextran, phosphate buffers, PHARMASOLVE®, or other suitable vehicles via oral, subcutaneous, intra-venous, feeding, or other route of administration. 1 to 24 hours following the administration of compound, animals are sacrificed, and brains are removed for analysis of Abeta 1-x. “Abeta 1-x” as used herein refers to the sum of Abeta species that begin with residue 1 and end with a C-terminus greater than residue 28. This detects the majority of Abeta species and is often called “total Abeta”. Total Abeta peptides (Abeta 1-x) levels are measured by a sandwich ELISA, using monoclonal 266 as a capture antibody and biotinylated 3D6 as reporting antibody. (See May, et al., Journal of Neuroscience, 31, 16507-16516 (2011)).
For acute studies, compound or appropriate vehicle is administered and animals are sacrificed at about 3 hours after dosing. Brain tissue, is obtained from selected animals and analyzed for the presence of Abeta 1-x. After chronic dosing brain tissues of older APP transgenic animals may also be analyzed for the amount of beta-amyloid plaques following compound treatment.
For example, a 0.1, 0.3, and 1 mg/kg oral dose of Example 1, to young female PDAPP mice reduced Abeta 1-x peptide levels in brain hippocampus by 32%, 40%, and 55% (all values p<0.01), respectively.

BACE1 = target: T3, BACE1 (Homo sapiens, UniProt P56817); assay: SH-SY5YAPP695Wt whole cell assay (Abeta ELISA); type: cell-based; settings: 24 hours incubation
T3 construct: endogenous in cells; host or cells: SH-SY5Y (ATCC CRL2266) stably expressing human APP695Wt
Description: as §1
The routine whole cell assay for the measurement of inhibition of BACE1 activity utilizes the human neuroblastoma cell line SH-SYSY (ATCC Accession No. CRL2266) stably expressing a human APP695Wt cDNA. Cells are routinely used up to passage number 6 and then discarded.
SH-SY5YAPP695Wt cells are plated in 96 well tissue culture plates at 5.0×10^4 cells/well in 200 μL culture media (50% MEM/EBSS and Ham's F12, 1× each sodium pyruvate, non-essential amino acids and NaHCO3 containing 10% FBS). […]
At the end of the incubation, conditioned media are analyzed for evidence of beta-secretase activity by analysis of Abeta peptides 1-40 and 1-42 by specific sandwich ELISAs. […]

T2 sequence (P56818 46-501): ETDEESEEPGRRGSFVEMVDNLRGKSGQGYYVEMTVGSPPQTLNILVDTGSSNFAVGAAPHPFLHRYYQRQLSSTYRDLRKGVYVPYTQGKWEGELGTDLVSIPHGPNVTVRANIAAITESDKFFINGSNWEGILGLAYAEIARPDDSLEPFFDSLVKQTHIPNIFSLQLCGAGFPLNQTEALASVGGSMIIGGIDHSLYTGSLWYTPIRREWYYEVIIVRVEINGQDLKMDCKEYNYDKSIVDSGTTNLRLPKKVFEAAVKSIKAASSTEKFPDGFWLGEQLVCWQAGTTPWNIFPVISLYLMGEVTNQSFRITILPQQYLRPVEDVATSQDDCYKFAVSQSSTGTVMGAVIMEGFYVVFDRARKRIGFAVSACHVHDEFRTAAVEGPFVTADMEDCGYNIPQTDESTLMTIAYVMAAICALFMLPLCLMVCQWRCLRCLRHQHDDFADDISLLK
T3 sequence (P56817 46-501): as the sequence (P56818 46-501) above, with S6P, I162V, I165L, T180S, A182V, V340I, A393L, H443Q counted along it

- selectivity for BACE1 over BACE2 (BACE2 IC50 / BACE1 IC50) (human BACE2 (1-460):Fc): approximately 35 fold
- reduction of Abeta 1-x levels in brain cortical tissue (beta-secretase; 0.1 mg/kg oral): 38%
- reduction of Abeta 1-x peptide levels in brain hippocampus (beta-secretase; 0.1 mg/kg oral): 32%
- reduction of Abeta 1-x levels in brain cortical tissue (beta-secretase; 0.3 mg/kg oral): 50%
- reduction of Abeta 1-x peptide levels in brain hippocampus (beta-secretase; 0.3 mg/kg oral): 40%
- reduction of Abeta 1-x levels in brain cortical tissue (beta-secretase; 1 mg/kg oral): 67%
- reduction of Abeta 1-x peptide levels in brain hippocampus (beta-secretase; 1 mg/kg oral): 55%
- IC50 (BACE1; ± 0.048, n=4, read-out: IC50 for SH-SY5YAPP695Wt A-beta (1-40) ELISA): 0.157 nM
- IC50 (BACE1; ± 0.050, n=4, read-out: IC50 for SH-SY5YAPP695Wt A-beta (1-42) ELISA): 0.177 nM
SMILES: CC(F)(F)[C@H]1OC[C@]2(c3cc(NC(=O)c4ccc(C#N)cn4)ccc3F)N=C(N)SC[C@H]12 [Example 1, N-[3-[(4aS,5S,7aS)-2-Amino-5-(1,1-difluoroethyl)-4,4a,5,7-tetrahydrofuro[3,4-d][1,3]thiazin-7a-yl]-4-fluoro-phenyl]-5-cyano-pyridine-2-carboxamide]
